Assay results: US5352704A, “Guanidinobenzene derivatives” (priority 1989, dated 1994)

How the values were obtained:
[1] = system: human influenza virus A/WSN; experiment: Inhibitory action on plaque formation by human influenza virus; type: cell-based, human influenza virus A/WSN (in MDCK dog kidney cells); settings: unidentified influenza virus, MDCK, 72 h, read-out: Inhibition ratio (%) of plaque formation
[2] = system: influenza virus A/Udron/72 (H3N2); type: in vivo, mole hamster; settings: 10.0 mg/ml, 50 μl intranasal at 6, 11 and 24 hours after infection, 28 hours from infection, n = 5
[3] = related art (Virology, Raven Press, pp 323-348, 1985); cited from earlier work

SMILES | inhibition at 12.5 µg/mL [1] | inhibition at 25 µg/mL [1] | inhibition at 50 µg/mL [1] | inhibition at 10 µg/mL [1] | inhibition at 20 µg/mL [1] | % Inhibition (virus in lung) ([2]; **P < 0.01, tTest) | PFU/lung ([2]; control 4.8 ± 2.2 × 10^5) | efficacy on frequent use [3] | side effects [3]
N=C(N)Nc1ccc(C(=O)Nc2ccc(C(=N)N)cc2)cc1 [Compound A, 4-guanidinobenzoic acid 4-amidinobenzamide.2 methanesulfonate] | 2.9% | 51% | 80.8% |  |  |  |  |  | 
N=C(N)Nc1ccc(C(=O)Nc2ccc3cc(C(=N)N)ccc3c2)cc1 [Compound B, 4-guanidinobenzoic acid 6-amidino-2-naphthylamide.2 methanesulfonate] |  |  | 82.4% | 31.4% | 67.6% | 99.0% | 5.0 ± 10.0 × 10^3 PFU/lung |  | 
NC12CC3CC(CC(C3)C1)C2 [amantadine] |  |  |  |  |  |  |  | the higher the frequency of use, the lower becomes efficacy | teratogenicity
